Source: paper PMC6196658, “Activity of Thioallyl Compounds From Garlic Against Giardia duodenalis Trophozoites and in Experimental Giardiasis” (Frontiers in Cellular and Infection Microbiology, 2018)
≈ marks a conversion by molar mass, not a printed value. Where “and” joins values, the source holds several entries; their conditions need not be identical. Equal values may be shown once. Read-outs that look alike come from different tables or passages of the source.

How the values were obtained:
[1] = test system: G. duodenalis trophozoites; assay: ROS formation, H2DCFDA flow cytometry; format: cell-based, Giardia duodenalis
Procedure: (§1) The identification and quantitative determinations of trophozoites were carried out as follows: (a) apoptosis or necrosis were determined using anti-annexin V-fluorescein isothiocyanate (FITC) antibodies or PI as respective markers, (b) oxidative stress was determined by formation of reactive oxygen species (ROS) with the fluorescent ROS-complexing agent 5-(and 6)-carboxy 2′7′-dichlorodihydrofluorescein diacetate (H2DCFDA), and (c) determination of trophozoites cell cycle stages (G1, S, G2, and G2/M) after exposure to ALC or to a control drug (albendazole, ABZ) was carried out as previously described (Martínez-Espinosa et al., [2015]). In all these assays 20,000 cells per sample were recorded.

[2] = test system: G. duodenalis trophozoites; assay: Annexin V-PI flow cytometry (apoptosis/necrosis); format: cell-based, Giardia duodenalis; conditions: 0.48 μM, 24 h
Procedure: as §1

[3] = test system: G. duodenalis trophozoites; assay: Cell cycle stages, PI flow cytometry; format: cell-based, Giardia duodenalis; conditions: 1.35 μM, 24 h
Procedure: as §1

[4] = test system: G. duodenalis trophozoites; assay: In vitro susceptibility, subculture in liquid medium (SCLM); format: cell-based, Giardia duodenalis (WB strain); conditions: for MLC (mM) ±SD / IC50: SCLM, 24 h exposure; for IC50: read-out: IC50 (mM) ±SD
[5] = molecular target: T1, giardipain-1 (Giardia intestinalis, UniProt P92132); assay: Inhibition of cytolytic effect of giardipain-1 on IEC6 cell monolayers; format: cell-based, Giardia duodenalis; conditions: 100 min
T1 construct: the 25 kDa band that contains the processed form of the cathepsin B-like protease named as giardipain-1; endogenous in cells
T1 sequence (P92132 75-300): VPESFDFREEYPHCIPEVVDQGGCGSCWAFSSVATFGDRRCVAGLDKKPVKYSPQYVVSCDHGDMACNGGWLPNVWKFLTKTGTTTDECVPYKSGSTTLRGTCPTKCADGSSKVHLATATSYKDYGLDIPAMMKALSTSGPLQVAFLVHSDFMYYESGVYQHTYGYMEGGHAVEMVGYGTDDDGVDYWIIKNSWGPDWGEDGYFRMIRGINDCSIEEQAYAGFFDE
Procedure: (§2) Additional assays were carried out using the MLCs of TACs (without giardipain-1) previously obtained in trophozoite cultures to monitor their toxicity. These solutions were added to monolayers of the intestinal cell line IEC6 grown in 1 cm^2-microwells and incubated for 100 min at 37°C. After incubation, supernatants were discarded and monolayers were fixed with 2% paraformaldehyde in PBS. The effects of TACs and E64 on the cytolytic effect of giardipain-1 were evaluated by light microscopy using Nomarski optics (Axioskop 40, Zeiss).

[6] = test system: cysteine protease activities in trophozoite lysates; assay: Proteolytic activity assay (gelatin zymogram); format: biochemical, Giardia duodenalis
Procedure: Trophozoite lysates were prepared as mentioned above except that cell lysis was carried out by sonication in 1.5 mL microcentrifuge tubes under ice bath using eight 15-s pulses at 80% amplitude with resting periods of 30 s (Ultrasonic Processor mod. CV19). Protein concentration was adjusted to 2 mg/mL and aliquoted in 25 μL fractions that were incubated for 30 min room temperature with 2–5 μL stock solutions of representative TACs (ALC, DADS, and AM). The reaction mixtures were diluted in Laemmli's sample buffer, loaded in wells of 10% acrylamide-02% gelatin slab gels and these were electrophoretically analyzed using 80 V/4°C. After this, gels were incubated in a solution of triton X-100 2.5% (v/v) in water for 1 h and washed 3 times with distilled water. Bands with proteolytic activity were detected as follows: gels were incubated in acetate buffer pH 5.5 with 1 mM DTT for 16 h at 37°C under constant stirring, washed 3 times with distilled water and stained with Coomassie blue (BioRad) for 2 h at 37°C under constant stirring. Finally, gels were washed with distilled water and incubated with a solution of 5% acetic acid/40% methanol (v/v). Gel images were documented with a UVP High Performance Ultraviolet Transilluminator and software Launch DocItLS.

[7] = test system: thiol groups exposed in G. duodenalis trophozoite proteins; assay: Thiol-modifying activity (inhibition of thiol-DTNB complexes); format: biochemical, Giardia duodenalis; conditions: 100 μg soluble trophozoite protein, 10 min 37°C, DTNB 412 nm
Procedure: The technique reported by Lawson and Wang ([1993]) was followed. In these assays trophozoites were collected from 60 mL flasks, washed 3 times with PBS and resuspended in 500 μL PBS containing a 1:12.5 dilution of a commercial mixture of protease inhibitors (Complete^TM, Roche Diagnostics GmbH, Indianapolis, IN, USA) and lysed by sonication at 12 microns/60% amplitude (Ultrasonic apparatus Sonic UVX1130PB). Soluble proteins were recovered by centrifugation at 15,400 × g for 30 min at 4°C and protein concentration was determined by the Bradford technique. These samples were adjusted to a concentration of 1 mg/mL. Reactions were carried out in 1.5 mL microcentrifuge tubes with a mixture of 100 μg protein (100 μL) and NaH2PO4 45 mM pH 7.0 mM (800 μL) to which increasing volumes of TACs stocks or a positive control with the thiol derivatizing agent MMTS prepared at 50 mM in the same buffer, were added and total volume was adjusted to 1 mL. After incubation for 10 min at 37°C, 100 μL of 1.5 mM dithionitrobenzoic acid (DTNB, Ellman's reagent) were added to each tube and following incubation for 10 min at room temperature the absorbances (yellow solutions) were recorded at 412 nm (Smart Spec 3000^TM, Bio-Rad, Hercules, CA, USA). A calibration curve was obtained using increasing volumes (0–100 μL) of 15.5 mM cysteine instead protein extracts and the maximal blocking concentration (MBC) corresponding to a complete absence of thiol-DTNB complexes produced by TACs were calculated using the least-square method (Microsoft Excel^TM).

[8] = test system: IEC6 cell monolayers; assay: Toxicity of TACs on IEC6 cell monolayers; format: cell-based; conditions: 275 mM, without giardipain-1, 100 min
Procedure: as §2

[9] = test system: G. duodenalis trophozoites; assay: Efficacy in experimental giardiasis; conditions: read day 13
Procedure: Eighty male Mongolian gerbils (M. unguiculatus) 6–10 weeks old, weighted 45–60 g and sentinel-checked gerbils free of intestinal parasites were kept in individual cages and distributed in 12 groups of 6 animals per treatment and experimental infections were performed as described elsewhere (Argüello-García and Ortega-Pierres, [1997]). In brief, animals were inoculated intragastrically with 1 × 10^6 G. duodenalis trophozoites in 500 μl sterile PBS per os using gavage under ether anesthesia. Control animals received 500 μl sterile PBS each. […] As additional control, one group of animals received MTZ (38.4 mg/kg at single or double dose). […] Treatment efficacy was evaluated by determining the presence or absence of trophozoites in intestinal contents of control and treated gerbils at day 13 post-infection. For this, gerbils were euthanized by an intraperitoneal injection of pentobarbital at a dose of 150 mg/kg to minimize stress and to reduce suffering, then a 10 cm-long section of intestine (from stomach ending, equivalent to nearly the entire small intestine) was excised after laparotomy, and it was longitudinally opened and rinsed in 20 mL PBS at 4°C for 20 min under shaking (720 rpm, Heidolph^TM rotatory shaker) to determine trophozoites number after parasite detachment from microvilli. Supernatant was collected and centrifuged at 750 × g for 10 min at 4°C, cell pellet was resuspended in 1 mL PBS and trophozoites were counted using a haemocytometer. Gerbils were scored as cured if no trophozoites were recovered from infected animals.

[10] = test system: G. duodenalis trophozoites; design: method as in Argüello-García et al., 2004; conditions: positive control drug; ref Argüello-García et al., 2004; cited from earlier work

## CCCSc1ccc2nc(NC(=O)OC)[nH]c2c1 [ABZ, albendazole]
[1]; ABZ control, 0.48 μM per Figure 9, 24 h
  cells positive for ROS (total): 33.85%
[2]
  R1 cells positive for necrosis (PI+): 5%
  cells in apoptosis (early plus late): 41.0%
[3]
  cells at G2 phase: 69.9%
  cells at S phase: 22.1%

## C=CCS [AM, allyl mercaptan]
[4]
  MLC (mM) ±SD: 3.06 mM (≈ 227 µg/mL)
  IC50: 0.83 ± 0.2 mM
[4]; listed as Allyl Mercaptan (AM)
  MLC (mM) ±SD: 3.06 ± 0.7 mM (≈ 227 µg/mL)
[5]; 514 mM pre-incubated 30 min with giardipain-1 16 μg/mL
  effect on giardipain-1 cytopathic damage in IEC6 monolayers: noticeably blocked these effects
[6]; bands of 75, 60 and 25 kDa, concentration not given
  effect on proteolytic bands in zymogram: significant increase of activity

## C=CCSC [AMS, allyl methyl sulfide]
[4]
  MLC (mM) ±SD: 74.28 mM (≈ 6550 µg/mL)
  IC50: 40.3 ± 3.5 mM
[4]; listed as Allyl Methyl Sulfide (AMS)
  MLC (mM) ±SD: 74.28 ± 12.3 mM (≈ 6550 µg/mL)
[7]
  MBC (maximal blocking concentration) ± SD: 845.9 mmol/mg protein and 845.96 ± 78.1 mmol/mg protein

## C=CCSSCC=C [DADS, diallyl disulphide]
[4]
  MLC (mM) ±SD: 2.66 mM (≈ 389 µg/mL)
  IC50: 1.4 ± 0.6 mM
[4]; listed as Diallyl Disulfide (DADS)
  MLC (mM) ±SD: 2.66 ± 0.8 mM (≈ 389 µg/mL)
[7]
  MBC (maximal blocking concentration) ± SD: > 200 mmol/mg protein and 224.58 ± 18.8 mmol/mg protein
[5]; 275 mM pre-incubated 30 min with giardipain-1 16 μg/mL
  effect on giardipain-1 cytopathic damage in IEC6 monolayers: reduced the frequency of cells displaying apoptotic damage
[6]; 275 mM
  effect on proteolytic bands in zymogram: could diminish similar activities except for the one at 60 kDa
[8]
  toxicity to IEC6 cell monolayers: affected some cells

## C=CCSCC=C [DAS, diallyl sulfide]
[4]; Giardia duodenalis
  IC50: 14.5 ± 2.3 mM
[4]
  MLC (mM) ±SD: 23.71 mM (≈ 2710 µg/mL)
[4]; listed as Diallyl Sulfide (DAS)
  MLC (mM) ±SD: 23.71 ± 6.0 mM (≈ 2710 µg/mL)
[7]
  MBC (maximal blocking concentration) ± SD: 351.3 mmol/mg protein and 351.34 ± 78.9 mmol/mg protein

## C=CCSSSCC=C [DATS, diallyl trisulfide]
[4]
  MLC (mM) ±SD: 1.35 ± 0.18 mM (≈ 241 µg/mL)
[7]
  MBC (maximal blocking concentration) ± SD: > 200 mmol/mg protein and 201.61 ± 33.4 mmol/mg protein

## CC(C)C[C@H](NC(=O)[C@H]1O[C@@H]1C(=O)O)C(=O)NCCCCN=C(N)N [E64, reference compound]
[5]; 20 μM pre-incubated 30 min with giardipain-1 16 μg/mL
  effect on giardipain-1 cytopathic damage in IEC6 monolayers: efficiently inhibited the giardipain-1 induced damage
[6]; 20 μM
  effect on proteolytic bands in zymogram: selective inhibition on the 25 kDa band

## CSS(C)(=O)=O [MMTS, methyl methanethiosulfonate, reference compound]
[7]
  MBC (maximal blocking concentration) ± SD: 55.45 ± 3.2 mmol/mg protein

## Cc1ncc([N+](=O)[O-])n1CCO [MTZ, metronidazole, reference compound]
[4]; Giardia duodenalis, 3.0 μM, 24 h, positive control, read-out: inhibition of trophozoite growth
  inhibition at 3 µM: 45 to 55%
[4]; Giardia duodenalis, 5.9 μM, 24 h, positive control, read-out: inhibition of trophozoite growth
  inhibition at 5.9 µM: > 95%
[9]; 36 mg/kg at twice dose
  cure rate (gerbils without trophozoites): 5 out of 6
[9]; 36 mg/kg single dose
  cure rate (gerbils without trophozoites): 3 out of 6
[10]
  IC50: 0.003 mM
  MLC: 0.0059 mM (≈ 1.01 µg/mL)

## CC(C)(C)OO [TBHP, tert-butyl hydroperoxide]
[1]; TBHP control, 400 μM per Figure 9, 24 h
  cells positive for ROS (total): 17.1%

## O=C([O-])c1cc[c]([Hg][OH])cc1.[Na+] [pHMB, sodium p-hydroxymercuribenzoate, reference compound]
[6]; 10 mM
  effect on proteolytic bands in zymogram: full inhibition of all proteolytic bands

## S-allyl-L-cysteine [SAC]
[4]
  MLC (mM) ±SD: 69.1 mM
  IC50: 40.8 ± 6.3 mM
[4]; listed as S-Allyl Cysteine (SAC)
  MLC (mM) ±SD: 69.10 ± 13.1 mM
[7]
  MBC (maximal blocking concentration) ± SD: 1260.9 mmol/mg protein and 1260.99 ± 125.6 mmol/mg protein
